Patent publication US8207193B2 (priority 2006, dated 2012)

Target: human muscarinic acetylcholine M3 receptor (M3-ACh) (Homo sapiens, UniProt P20309)
Assay: biochemical
Assay type: binding
[1] = pIC50 of comparative compounds containing a cyclooctyl (C8) ring in place of cycloheptyl (C7)
[2] = pIC50 of comparative compounds containing a cyclopentyl (C5) ring in place of cycloheptyl (C7)

Chain of human muscarinic acetylcholine M3 receptor (M3-ACh) (P20309 whole entry): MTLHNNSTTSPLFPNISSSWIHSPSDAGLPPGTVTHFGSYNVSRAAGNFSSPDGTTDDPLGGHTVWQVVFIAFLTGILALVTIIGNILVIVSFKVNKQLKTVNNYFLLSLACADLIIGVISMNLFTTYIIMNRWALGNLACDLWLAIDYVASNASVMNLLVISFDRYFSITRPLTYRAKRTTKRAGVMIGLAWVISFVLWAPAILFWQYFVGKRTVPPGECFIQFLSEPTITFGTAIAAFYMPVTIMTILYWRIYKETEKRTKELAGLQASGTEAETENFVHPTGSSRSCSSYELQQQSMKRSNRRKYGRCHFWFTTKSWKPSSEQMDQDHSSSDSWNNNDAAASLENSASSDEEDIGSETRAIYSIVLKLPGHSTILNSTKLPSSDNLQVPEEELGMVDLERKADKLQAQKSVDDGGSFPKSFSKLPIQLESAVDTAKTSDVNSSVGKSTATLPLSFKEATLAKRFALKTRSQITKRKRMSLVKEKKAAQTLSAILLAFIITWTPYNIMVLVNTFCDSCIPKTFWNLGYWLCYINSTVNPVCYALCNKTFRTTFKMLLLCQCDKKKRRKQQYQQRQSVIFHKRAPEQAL

| Compound | IC50 (M3 binding IC50) [nM] | also measured |
| --- | --- | --- |
| O=C(C[N+]12CCC(CC1)[C@@H](OC(=O)C1(c3ccccc3)CCCCCCC1)C2)Nc1cnccn1 [compound 9, (3R)-1-[2-Oxo-2-(pyrazin-2-ylamino)ethyl]-3-{[(1-phenylcyclooctyl)carbonyl]oxy}-1-azoniabicyclo[2.2.2]octane Bromide, reference compound] |  | IC50 [1]: 0.316 nM |
| O=C(O[C@H]1C[N+]2(Cc3ccc(F)cc3)CCC1CC2)C1(c2ccccc2)CCCCCC1 [Example 5, (3R)-1-(4-Fluorobenzyl)-3-{[(1-phenylcycloheptyl)carbonyl]oxy}-1-azoniabicyclo[2.2.2]octane Bromide] | > 10 |  |
| O=C(C[N+]12CCC(CC1)[C@@H](OC(=O)C1(c3ccccc3)CCCCCC1)C2)Nc1ccon1 [Example 4, (3R)-1-[2-(Isoxazol-3-ylamino)-2-oxoethyl]-3-{[(1-phenylcycloheptyl)carbonyl]oxy}-1-azoniabicyclo[2.2.2]octane Bromide] | < 2 | IC50 (pIC50): 0.0631 nM |
| O=C(O)C[N+]12CCC(CC1)[C@@H](OC(=O)C1(c3ccccc3)CCCCCC1)C2 [Example 34, (3R)-1-(Carboxymethyl)-3-{[(1-phenylcycloheptyl)carbonyl]oxy}-1-azoniabicyclo[2.2.2]octane Bromide] | > 10 |  |
| O=C(C[N+]12CCC(CC1)[C@@H](OC(=O)C1(c3ccccc3)CCCC1)C2)Nc1cnccn1 [compound 3, (3R)-1-[2-Oxo-2-(pyrazin-2-ylamino)ethyl]-3-{[(1-phenylcyclopentyl)carbonyl]oxy}-1-azoniabicyclo[2.2.2]octane Bromide, reference compound] |  | IC50 [2]: 0.316 nM |
| O=C(C[N+]12CCC(CC1)[C@@H](OC(=O)C1(c3cccs3)CCCCCC1)C2)Nc1ccon1 [Example 13, (3R)-1-[2-(Isoxazol-3-ylamino)-2-oxoethyl]-3-({[1-(2-thienyl)cycloheptyl]carbonyl}oxy)-1-azoniabicyclo[2.2.2]octane Bromide] | < 2 |  |
| Cc1cc(NC(=O)C[N+]23CCC(CC2)[C@@H](OC(=O)C2(c4ccccc4)CCCCCC2)C3)no1 [Example 20, (3R)-1-{2-[(5-Methylisoxazol-3-yl)amino]-2-oxoethyl}-3-{[(1-phenylcycloheptyl)carbonyl]oxy}-1-azoniabicyclo[2.2.2]octane Bromide] | < 2 |  |
| O=C(C[N+]12CCC(CC1)[C@@H](OC(=O)C1(c3ccccc3)CCCCCC1)C2)NCCCc1ccccc1 [Example 37, (3R)-1-{2-Oxo-2-[(3-phenylpropyl)amino]ethyl}-3-{[(1-phenylcycloheptyl)carbonyl]oxy}-1-azoniabicyclo[2.2.2]octane Bromide] | 2 to 10 |  |
| O=C(C[N+]12CCC(CC1)[C@@H](OC(=O)C1(c3ccccc3)CCCCCC1)C2)Nc1cncc(Cl)n1 [Example 31, (3R)-1-{2-[(6-Chloropyrazin-2-yl)amino]-2-oxoethyl}-3-{[(1-phenylcycloheptyl)carbonyl]oxy}-1-azoniabicyclo[2.2.2]octane Bromide] | < 2 |  |
| O=C(O[C@H]1C[N+]2(CCc3cccc(C(F)(F)F)c3)CCC1CC2)C1(c2ccccc2)CCCCCC1 [Example 27, (3R)-3-{[(1-Phenylcycloheptyl)carbonyl]oxy}-1-{2-[3-(trifluoromethyl)phenyl]ethyl}-1-azoniabicyclo[2.2.2]octane Bromide] | < 2 |  |
| O=C(O[C@H]1C[N+]2(CCOCc3ccccc3)CCC1CC2)C1(c2ccccc2)CCCCCC1 [Example 12, (3R)-1-[2-(Benzyloxy)ethyl]-3-{[(1-phenylcycloheptyl)carbonyl]oxy}-1-azoniabicyclo[2.2.2]octane Bromide] | < 2 |  |
| O=C(O[C@H]1C[N+]2(CCc3ccc4ccccc4c3)CCC1CC2)C1(c2ccccc2)CCCCCC1 [Example 23, (3R)-1-[2-(2-Naphthyl)ethyl]-3-{[(1-phenylcycloheptyl)carbonyl]oxy}-1-azoniabicyclo[2.2.2]octane Bromide] | < 2 |  |
| O=C(C[N+]12CCC(CC1)[C@@H](OC(=O)C1(c3ccccc3)CCCCCC1)C2)N1CCOCC1 [Example 15, (3R)-1-(2-Morpholin-4-yl-2-oxoethyl)-3-{[(1-phenylcycloheptyl)carbonyl]oxy}-1-azoniabicyclo[2.2.2]octane Bromide] | 2 to 10 |  |
| C[N+]12CCC(CC1)[C@@H](OC(=O)C1(c3ccccc3)CCCC1)C2 [Comparative Example 2, (3R)-1-Methyl-3-{[(1-phenylcyclopentyl)carbonyl]oxy}-1-azoniabicyclo[2.2.2]octane Iodide, reference compound] |  | IC50 [2]: 39.8 nM |
| O=C1c2ccccc2C(=O)N1CC[N+]12CCC(CC1)[C@@H](OC(=O)C1(c3ccccc3)CCCCCC1)C2 [Example 30, (3R)-1-[2-(1,3-Dioxo-1,3-dihydro-2H-isoindol-2-yl)ethyl]-3-{[(1-phenylcycloheptyl)carbonyl]oxy}-1-azoniabicyclo[2.2.2]octane Bromide] | > 10 |  |
| O=C(C[N+]12CCC(CC1)[C@@H](OC(=O)C1(c3ccccc3)CCCCCC1)C2)NCCOc1ccccc1 [Example 18, (3R)-1-{2-Oxo-2-[(2-phenoxyethyl)amino]ethyl}-3-{[(1-phenylcycloheptyl)carbonyl]oxy}-1-azoniabicyclo[2.2.2]octane Bromide] | < 2 |  |
| C[N+]12CCC(CC1)[C@@H](OC(=O)C1(c3ccccc3)CCCCCCC1)C2 [compound 8, (3R)-1-Methyl-3-{[(1-phenylcyclooctyl)carbonyl]oxy}-1-azoniabicyclo[2.2.2]octane Iodide, reference compound] |  | IC50 [1]: 39.8 nM |
| O=C(O[C@H]1C[N+]2(CCc3cccc(Cl)c3)CCC1CC2)C1(c2ccccc2)CCCCCC1 [Example 35, (3R)-1-[2-(3-Chlorophenyl)ethyl]-3-{[(1-phenylcycloheptyl)carbonyl]oxy}-1-azoniabicyclo[2.2.2]octane bromide] | < 2 |  |
| Cc1ccc(CC[N+]23CCC(CC2)[C@@H](OC(=O)C2(c4ccccc4)CCCCCC2)C3)s1 [Example 25, (3R)-1-[2-(5-Methyl-2-thienyl)ethyl]-3-{[(1-phenylcycloheptyl)carbonyl]oxy}-1-azoniabicyclo[2.2.2]octane Bromide] | < 2 |  |
| NC(=O)C[N+]12CCC(CC1)[C@@H](OC(=O)C1(c3ccccc3)CCCCCC1)C2 [Example 36, (3R)-1-(2-Amino-2-oxoethyl)-3-{[(1-phenylcycloheptyl)carbonyl]oxy}-1-azoniabicyclo[2.2.2]octane Bromide] | < 2 |  |
| O=C(O[C@H]1C[N+]2(Cc3ccc(F)c(F)c3)CCC1CC2)C1(c2ccccc2)CCCCCC1 [Example 8, (3R)-1-(3,4-Difluorobenzyl)-3-{[(1-phenylcycloheptyl)carbonyl]oxy}-1-azoniabicyclo[2.2.2]octane Bromide] | > 10 |  |
| C[N+]12CCC(CC1)[C@@H](OC(=O)C1(c3ccccc3)CCCCC1)C2 [compound 5, (3R)-1-Methyl-3-{[(1-phenylcyclohexyl)carbonyl]oxy}-1-azoniabicyclo[2.2.2]octane Iodide, reference compound] |  | IC50 (pIC50 of comparative compounds containing a cyclohexyl (C6) ring in place of cycloheptyl (C7)): 50.1 nM |
| Cc1cc(NC(=O)C[N+]23CCC(CC2)[C@@H](OC(=O)C2(c4ccccc4)CCCCCC2)C3)on1 [Example 39, (3R)-1-{2-[(3-Methylisoxazol-5-yl)amino]-2-oxoethyl}-3-{[(1-phenylcycloheptyl)carbonyl]oxy}-1-azoniabicyclo[2.2.2]octane Bromide] | < 2 |  |
